# Experimental data as given in patent publication US9981918B2, “Kynurenine-3-monooxygenase inhibitors, pharmaceutical compositions, and methods of use thereof” (CHDI Foundation, Inc., priority 2011, dated 2018).
# System: KMO
# Experiment: KMO inhibition: L-Kynurenine hydroxylation to 3-Hydroxy-Kynurenine monitored by LC/MS
# Format: biochemical
# Details: compound at 10 uM; footnote: some portion of activity of amides may be due to contribution of acid precursor
# Procedure: A generalized procedure for monitoring L-Kynurenine (KYN) hydroxylation to form product 3-Hydroxy-Kynurenine (30H-KYN) by LC/MS is described below. Product is quantified by multiple reaction monitoring using MS.
# A method of monitoring L-Kynurenine (KYN) hydroxylation to form product 3-Hydroxy-Kynurenine (30H-KYN) by LC/MS is described below. Product is quantified by multiple reaction monitoring.
# • Compound: Stock concentrations: 10 mM in 100% DMSO • Enzyme: KMO enzyme prepared at Evotec via mitochondria isolation from CHO-GST HIS KMO cells • Substrate: L-Kynurenine (Sigma: Cat# K3750) • [stock concentration: 10 mM in 100 mM potassium phosphate buffer, pH 7.4]
# A method of monitoring L-Kynurenine (KYN) hydroxylation to form 3-Hydroxy-Kynurenine (30H-KYN) by LC/MS is described. Product is quantified by multiple reaction monitoring (MRM method).
smiles,measurement,value
"O=C(OC[C@H]1OC(O)[C@H](O)[C@@H](O)[C@@H]1O)c1cc(-c2ccc(OC3CC3)c(Cl)c2)ncn1 (stereo partly drawn) [[(2R,3S,4S,5R)-3,4,5,6-tetrahydroxyoxan-2-yl]methyl 6-(3-chloro-4-cyclopropoxyphenyl)pyrimidine-4-carboxylate]",% Inhibition at 10 uM*,102%
